These results are taken from patent US20140023602A1, “EXTERNAL PREPARATION FOR SKIN CONTAINING A PHOSPHORYLATED SACCHARIDE” (EZAKI GLICO CO., LTD., priority 2005, published 2014).

In data set [1] the test system is Normal human skin fibroblast cells. As to the kind of experiment: Collagen production by human skin fibroblast, Sircol collagen assay. Type of data set: cell-based. As for the experimental part: Normal human skin fibroblast cells were adjusted with 10% D-MEM (manufactured by Invitrogen) to a density of 2.5×10^4 cells per well, and preincubated on the 96-well plate for 24 hours. After removal of the medium, phosphorylated saccharide calcium salt adjusted to a concentration of 1% with 4% D-MEM was added to each well as a test sample, and then the mixture was cultured at 37° C. under 5% CO2 for 72 hours. After the completion of the culture, the amount of collagen in the medium was measured. The amount of collagen was measured by using a Sircol collagen assay Kit (manufactured by Biocolor Ltd.).
(§1) Normal human skin fibroblast cells were adjusted with 10% D-MEM (manufactured by Invitrogen) to a density of 2.5×10^4 cells per well, and preincubated on the 96-well plate for 24 hours. After removal of the medium, phosphorylated saccharide calcium salt adjusted to a concentration of 1% with 4% D-MEM and 0.0044% ascorbic acid as a test sample, or 0.0044% ascorbic acid as a control was added to each well, and then the mixture was cultured at 37° C. under 5% CO2 for 72 hours. After the completion of the culture, the amounts of collagen in the medium and on the cell surface were measured. The amount of collagen was measured by using a Sircol collagen assay Kit (manufactured by Biocolor Ltd.). The collagen on cell surface was measured after pepsin treatment.
Normal human skin fibroblast cells were adjusted with 10% D-MEM (manufactured by Invitrogen) to a density of 2.5×10^4 cells per well, and preincubated on the 96-well plate for 24 hours. After removal of the medium, phosphorylated saccharide potassium salt adjusted to a concentration of 1% with 4% D-MEM was added to each well as a test sample, and then cultured at 37° C. under 5% CO2 for 72 hours. After the completion of the culture, the amount of collagen in the medium was measured. The amount of collagen was measured by using a Sircol collagen assay Kit (manufactured by Biocolor Ltd.).
as §1, with “phosphorylated saccharide potassium salt adjusted” for “phosphorylated saccharide calcium salt adjusted”, “acid as control was” for “acid as a control was”, “medium and the cell” for “medium and on the cell”

For data set [2] the following is noted: buffer; for Water retention ratio: Remaining ratio after 1 minute (%): 1 min.
Method: 0.1% to 1% Aqueous phosphorylated saccharide mineral salt solutions were prepared. Ten μl/paper of the aqueous phosphorylated saccharide mineral salt solution was impregnated into a paper disc (8 mm) [manufactured by Advantech], and the water-retention effect was evaluated by measuring the remaining water over time for 10 minutes under a constant condition. For comparison, 0.1% solution of hyaluronic acid or 1% solution of glycerol, which are known as water retention component, were used. Distilled water was used as a control.
Where [3] appears, read: inorganic chloride as comparison, concentration not given.

Where “and” joins values, the source holds several entries; their conditions need not be identical. Identical values can stand only once.

Take `[Cl-].[K+]` [potassium chloride]: the “induction of the collagen production (amount of collagen)” value in data set [1] (inorganic chloride as comparison, concentration not given, 72 hours) came out at 2.2 µg/mL.
With `[Cl-].[Cl-].[Mg+2]` [magnesium chloride], the “induction of collagen production (in words)” value in data set [1] (setting [3]) was “no significant collagen production induction was observed”.
Turning to `O=C1O[C@H]([C@@H](O)CO)C(O)=C1O` [ascorbic acid], in data set [1] (0.0044% ascorbic acid alone, 72 hours), the “amount of collagen in the medium” value was 55.1 µg/mL and 44.1 µg/mL and 50.1 µg/mL and 52.1 µg/mL. Moreover, in data set [1] (0.0044% ascorbic acid alone, 72 hours, after pepsin treatment), the “amount of collagen on the cell surface” value was 23.1 µg/mL and 23.0 µg/mL and 21.3 µg/mL. Moreover, the “increase of amount of collagen in the medium compared to control well” value in data set [1] (0.0044% ascorbic acid in 4% FBS-DMEM, 72 hours) was 1.4 µg.
Consider `OCC(O)CO` [glycerol], for which, in data set [2], the “Water retention ratio: Remaining ratio after 1 minute (%)” value is recorded as 98.84% and the “Water retention ratio: Remaining ratio after 10 minutes (%)” value was 88.23%.
With `[Ca+2].[Cl-].[Cl-]` [calcium chloride], the “induction of collagen production (in words)” value in data set [1] (setting [3]) is “no induction of collagen production was observed”.
In the case of hyaluronic acid, in data set [2], the “Water retention ratio: Remaining ratio after 1 minute (%)” value is 98.84% and the “Water retention ratio: Remaining ratio after 10 minutes (%)” value came to 83.73%.
